Measurements from US8592172B2, “Bioluminescent assays using cyanobenzothiazole compounds” (Promega Corporation, priority 2010, dated 2013).

Experiments:
UGT 1A1 = molecular target: T1, UGT 1A1 (Homo sapiens, UniProt P22309); assay: Recombinant UGT panel, substrate utilization; type: biochemical; details: 2 hour incubation at 37° C., recombinant Supersomes, background corrected
T1 construct: purchased BD Gentest; host or cells: insect cells (microsomes)
T1 sequence (P22309 26-533): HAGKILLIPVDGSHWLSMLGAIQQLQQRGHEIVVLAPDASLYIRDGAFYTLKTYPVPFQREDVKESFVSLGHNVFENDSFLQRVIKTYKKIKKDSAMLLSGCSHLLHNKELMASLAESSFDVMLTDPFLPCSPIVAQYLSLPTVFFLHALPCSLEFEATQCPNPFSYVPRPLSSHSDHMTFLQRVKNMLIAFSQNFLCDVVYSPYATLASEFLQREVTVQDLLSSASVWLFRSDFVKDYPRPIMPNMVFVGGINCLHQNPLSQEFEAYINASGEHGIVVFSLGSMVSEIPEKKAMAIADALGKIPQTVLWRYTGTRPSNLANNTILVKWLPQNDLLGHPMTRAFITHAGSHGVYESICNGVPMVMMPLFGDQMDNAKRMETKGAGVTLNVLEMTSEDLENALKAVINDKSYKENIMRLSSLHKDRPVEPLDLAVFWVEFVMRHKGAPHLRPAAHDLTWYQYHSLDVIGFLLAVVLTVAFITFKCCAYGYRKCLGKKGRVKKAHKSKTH
Protocol: (§1) During this incubation, the cysteine reacts with the cyanobenzathiozole substrate to yield a D-luciferin derivative. […] Therefore, activity of the UGT enzyme can be measured by analyzing the difference (lower or no output) in relative light units (RLU) of a sample in which glucuronidation occurs compared to a sample that was run under the same conditions with no added UDPGA cofactor.
(§2) In this example, a series of 12 recombinant UGTs expressed in insect microsomes (Supersomes™, BD Gentest™), as well as the control microsomes not expressing the UGT enzyme, were incubated with compound 3138, compound 3478, or compound 3165 as substrates, with or without the UDPGA co-factor.
(§3) After addition of a luciferin detection reagent (LDR) containing D-cysteine, both the substrate and the product were converted to D-luciferins (compound 3478 is already a luciferin derivative before addition of the LDR).
(§4) Reactions were assembled in a white, 96-well plate. Each well contained 20 μL of reaction mixture comprised of 100 mM TES, pH 7.5, 16 mM MgCl2, 50 μg/mL alamethicin (Sigma), 60 μM compound 3138 or compound 3478, and 0.4 mg/mL of control or recombinant UGT membranes. The reactions were initiated by addition of 20 μL of water or 8 mM triammonium UDPGA (Sigma) to each well. The plate was mixed, sealed, and incubated in a 37° C. water bath for 2 hours. After the incubation, 40 μL P450-Glo LDR (Promega) with 20 mM D-cysteine-HCl.H2O (Sigma) was added to each well, the plate was mixed and allowed to incubate at room temperature for 20 minutes. After the incubation was completed, the plate was read on a Veritas™ luminometer (Turner BioSystems, Inc.; Sunnyvale, Calif.).
(§5) For each isozyme, the bioluminescence from the replicates containing UDPGA were subtracted from the average bioluminescence of the replicates without UDPGA. The average Δ RLU value obtained and the standard deviation of the replicates were then divided by the average bioluminescence for samples without UDPGA to obtain the % utilization for each isozyme. The % utilization obtained from the control microsomes was then subtracted from each isozyme to give the background corrected utilization data for those isozymes.

UGT 1A10 = molecular target: T2, UGT 1A10 (Homo sapiens, UniProt Q9HAW8); assay: Recombinant UGT panel, substrate utilization; type: biochemical; details: 2 hour incubation at 37° C., recombinant Supersomes, background corrected
T2 construct: purchased BD Gentest; host or cells: insect cells (microsomes)
Protocol: as §1, §2, §3, §4, §5

UGT 1A4 = molecular target: T3, UGT 1A4 (Homo sapiens, UniProt P22310); assay: Recombinant UGT panel, substrate utilization; type: biochemical; details: 2 hour incubation at 37° C., recombinant Supersomes
T3 construct: purchased BD Gentest; host or cells: insect cells (microsomes)
T3 sequence (P22310 29-534): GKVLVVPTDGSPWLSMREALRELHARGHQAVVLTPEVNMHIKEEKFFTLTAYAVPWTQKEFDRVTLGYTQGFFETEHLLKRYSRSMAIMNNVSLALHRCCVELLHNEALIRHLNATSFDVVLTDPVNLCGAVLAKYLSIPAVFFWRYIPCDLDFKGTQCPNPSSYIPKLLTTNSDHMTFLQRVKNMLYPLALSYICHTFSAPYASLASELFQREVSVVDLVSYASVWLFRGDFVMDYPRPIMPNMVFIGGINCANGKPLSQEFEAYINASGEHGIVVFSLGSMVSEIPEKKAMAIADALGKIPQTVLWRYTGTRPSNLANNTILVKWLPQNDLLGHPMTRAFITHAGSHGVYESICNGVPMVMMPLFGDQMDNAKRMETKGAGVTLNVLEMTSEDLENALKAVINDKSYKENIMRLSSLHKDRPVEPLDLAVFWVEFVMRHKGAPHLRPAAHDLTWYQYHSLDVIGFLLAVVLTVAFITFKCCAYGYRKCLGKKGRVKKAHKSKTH
Protocol: as §1, §2, §3, §4, §5

UGT 1A6 = molecular target: T4, UGT 1A6 (Homo sapiens, UniProt P19224); assay: Recombinant UGT panel, substrate utilization; type: biochemical; details: 2 hour incubation at 37° C., recombinant Supersomes
T4 construct: purchased BD Gentest; host or cells: insect cells (microsomes)
Protocol: as §1, §2, §3, §4, §5

UGT 1A8 = molecular target: T5, UGT 1A8 (Homo sapiens, UniProt Q9HAW9); assay: Recombinant UGT panel, substrate utilization; type: biochemical; details: 2 hour incubation at 37° C., recombinant Supersomes, background corrected
T5 construct: purchased BD Gentest; host or cells: insect cells (microsomes)
Protocol: as §1, §2, §3, §4, §5

UGT 1A9 = molecular target: T6, UGT 1A9 (Homo sapiens, UniProt O60656); assay: Recombinant UGT panel, substrate utilization; type: biochemical; details: 2 hour incubation at 37° C., recombinant Supersomes, background corrected
T6 construct: purchased BD Gentest; host or cells: insect cells (microsomes)
T6 sequence (O60656 26-530): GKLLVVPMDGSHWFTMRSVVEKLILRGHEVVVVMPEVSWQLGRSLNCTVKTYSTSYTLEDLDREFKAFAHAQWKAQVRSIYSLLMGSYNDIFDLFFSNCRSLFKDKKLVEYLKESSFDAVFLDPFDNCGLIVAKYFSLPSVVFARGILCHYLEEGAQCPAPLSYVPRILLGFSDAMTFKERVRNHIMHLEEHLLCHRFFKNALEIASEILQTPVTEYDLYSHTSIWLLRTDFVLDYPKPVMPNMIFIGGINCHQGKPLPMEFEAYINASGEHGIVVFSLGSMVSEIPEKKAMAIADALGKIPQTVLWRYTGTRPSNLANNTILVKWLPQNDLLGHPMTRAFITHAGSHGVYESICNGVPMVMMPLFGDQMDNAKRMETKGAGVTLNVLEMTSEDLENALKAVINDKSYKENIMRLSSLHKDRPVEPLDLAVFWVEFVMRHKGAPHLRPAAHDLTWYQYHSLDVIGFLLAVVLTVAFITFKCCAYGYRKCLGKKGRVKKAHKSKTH
Protocol: as §1, §2, §3, §4, §5

UGT 2B4 = molecular target: T7, UGT 2B4 (Homo sapiens, UniProt P06133); assay: Recombinant UGT panel, substrate utilization; type: biochemical; details: 2 hour incubation at 37° C., recombinant Supersomes
T7 construct: purchased BD Gentest; host or cells: insect cells (microsomes)
Protocol: as §1, §2, §3, §4, §5

UGT 2B7 = UGT 2B7 (Homo sapiens, UniProt P16662); assay: Recombinant UGT panel, substrate utilization; type: biochemical; set-up: purchased BD Gentest; host or cells: insect cells (microsomes); details: 2 hour incubation at 37° C., recombinant Supersomes, background corrected
Protocol: as §1, §2, §3
Reactions were assembled in a white, 96-well plate. Each well contained 20 μL of reaction mixture comprised of 100 mM TES, pH 7.5, 16 mM MgCl2, 50 μg/mL alamethicin (Sigma), 60 μM compound 3138 or compound 3478, and 0.4 mg/mL of control or recombinant UGT membranes. The reactions were initiated by addition of 20 μL of water or 8 mM triammonium UDPGA (Sigma) to each well. […] After the incubation was completed, the plate was read on a Veritas™ luminometer (Turner BioSystems, Inc.; Sunnyvale, Calif.). […]

CYP1A2 [1] = assay: Non-lytic cell-based assay with human hepatocytes, compound 3019; details: 100 μM omeprazole 48 hours, 3 μM compound 3019
Protocol: Human cryopreserved hepatocytes (Celsis lot RTM) were thawed and seeded in hepatocyte culture medium in wells of a collagen-coated, 96-well culture plate at ˜70,000 cells per well and kept at 37° C. in standard cell culture incubator with 5% CO2. The cells were then treated for 48 hours with 100 μM omeprazole or vehicle control (0.1% dimethylsulfoxide) dissolved in hepatocytes culture medium (n═3 for each treatment, mean values and standard deviations are shown). […] 50 μl of the KH incubation buffer was then removed from each well and transferred to a well of a white, 96-well luminometer plate (Costar) where it was also combined with 50 μl of P450-Glo LDR containing 6.6 mM D-cysteine.

CYP1A2 [2] = assay: Multiplex human hepatocyte assay, CYP1A2 detected with compound 3019; type: cell-based; details: human hepatocytes, 100 μM omeprazole 48 hours
Protocol: For detection of CYP3A4, the luciferin acetal derivative, Luciferin-IPA (Luc-IPA), was used with bioluminescence detected using LDR without D-cysteine.
Human cryopreserved hepatocytes (Celsis In Vitro Technologies) were thawed and seeded in hepatocyte culture medium in wells of a collagen-coated, 96-well culture plate at ˜50,000 cells per well and kept at 37° C. in standard cell culture incubator with 5% CO2. […] The plate was then removed from the incubator. Fifty μl from each intact cell supernatant was transferred to two-set wells of a white, 96-well luminometer plate (Costar). To one set of wells, 50 μl of LDR with 4 mM D-cysteine was added, while 50 μl of LDR without D-cysteine was added to the other set.

[3] = system: CYP450 1A2 activity in human liver microsomes; assay: Human liver microsome assay with compound 3019; details: 1 μg HLM, 3 μM compound 3019, 10 minutes at 37° C.
Protocol: Equal volumes of P450-Glo LDR with 6.6 mM D-Cysteine was added into the CYP450 reactions.

T4 sequence (P19224 27-532): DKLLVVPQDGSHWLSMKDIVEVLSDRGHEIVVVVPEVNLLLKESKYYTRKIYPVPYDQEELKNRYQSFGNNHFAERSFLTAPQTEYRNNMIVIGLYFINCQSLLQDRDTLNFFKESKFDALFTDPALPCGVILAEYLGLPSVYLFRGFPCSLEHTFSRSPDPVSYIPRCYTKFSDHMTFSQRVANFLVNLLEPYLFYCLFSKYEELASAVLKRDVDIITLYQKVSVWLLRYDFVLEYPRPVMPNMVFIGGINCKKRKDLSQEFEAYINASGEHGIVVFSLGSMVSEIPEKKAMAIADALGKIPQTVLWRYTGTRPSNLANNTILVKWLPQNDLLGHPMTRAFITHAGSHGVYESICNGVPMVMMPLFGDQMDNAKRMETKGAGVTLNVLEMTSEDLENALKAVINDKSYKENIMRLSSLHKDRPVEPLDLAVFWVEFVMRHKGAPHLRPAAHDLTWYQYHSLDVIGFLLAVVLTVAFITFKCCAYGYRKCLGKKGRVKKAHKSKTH
T2 sequence (Q9HAW8 26-530): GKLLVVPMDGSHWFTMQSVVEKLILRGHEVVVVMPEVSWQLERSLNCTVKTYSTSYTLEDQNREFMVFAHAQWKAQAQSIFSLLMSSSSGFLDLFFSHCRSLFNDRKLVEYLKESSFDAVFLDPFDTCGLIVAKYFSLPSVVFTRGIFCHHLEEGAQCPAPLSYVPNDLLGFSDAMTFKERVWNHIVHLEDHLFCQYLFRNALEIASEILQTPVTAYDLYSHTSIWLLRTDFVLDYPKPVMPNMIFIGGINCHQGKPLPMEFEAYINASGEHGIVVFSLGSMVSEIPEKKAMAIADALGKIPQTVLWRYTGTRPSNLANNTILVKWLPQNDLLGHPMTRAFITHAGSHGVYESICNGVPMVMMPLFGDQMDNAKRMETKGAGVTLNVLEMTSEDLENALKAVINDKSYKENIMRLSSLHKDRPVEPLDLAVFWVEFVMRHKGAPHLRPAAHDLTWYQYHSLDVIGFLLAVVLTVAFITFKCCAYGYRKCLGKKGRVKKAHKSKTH
Chain of UGT 2B7 (P16662 24-529): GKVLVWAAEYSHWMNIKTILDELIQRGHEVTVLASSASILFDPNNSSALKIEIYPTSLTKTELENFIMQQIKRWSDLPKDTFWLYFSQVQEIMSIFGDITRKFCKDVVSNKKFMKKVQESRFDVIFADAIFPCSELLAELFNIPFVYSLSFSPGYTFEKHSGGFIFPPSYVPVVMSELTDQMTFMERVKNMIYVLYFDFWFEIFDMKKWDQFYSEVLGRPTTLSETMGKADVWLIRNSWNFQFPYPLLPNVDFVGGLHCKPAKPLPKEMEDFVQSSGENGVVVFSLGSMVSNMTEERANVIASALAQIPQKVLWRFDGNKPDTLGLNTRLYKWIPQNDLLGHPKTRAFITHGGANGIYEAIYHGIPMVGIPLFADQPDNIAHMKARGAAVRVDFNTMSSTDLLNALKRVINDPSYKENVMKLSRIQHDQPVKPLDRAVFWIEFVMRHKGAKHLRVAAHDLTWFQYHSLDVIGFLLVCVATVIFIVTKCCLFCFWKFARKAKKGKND
T7 sequence (P06133 24-528): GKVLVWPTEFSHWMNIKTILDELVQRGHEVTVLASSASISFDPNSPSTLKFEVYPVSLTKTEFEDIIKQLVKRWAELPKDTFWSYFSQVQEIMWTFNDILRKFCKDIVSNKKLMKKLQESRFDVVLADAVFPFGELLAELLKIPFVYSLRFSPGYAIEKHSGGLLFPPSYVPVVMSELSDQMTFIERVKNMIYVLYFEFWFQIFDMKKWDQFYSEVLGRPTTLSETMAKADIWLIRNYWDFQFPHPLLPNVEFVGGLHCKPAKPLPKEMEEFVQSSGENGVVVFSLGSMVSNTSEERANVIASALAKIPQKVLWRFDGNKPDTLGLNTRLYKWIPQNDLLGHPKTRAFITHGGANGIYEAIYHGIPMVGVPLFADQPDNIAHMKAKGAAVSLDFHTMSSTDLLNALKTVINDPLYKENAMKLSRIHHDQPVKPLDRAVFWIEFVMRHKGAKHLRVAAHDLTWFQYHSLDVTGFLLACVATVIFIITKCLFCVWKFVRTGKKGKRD
T5 sequence (Q9HAW9 26-530): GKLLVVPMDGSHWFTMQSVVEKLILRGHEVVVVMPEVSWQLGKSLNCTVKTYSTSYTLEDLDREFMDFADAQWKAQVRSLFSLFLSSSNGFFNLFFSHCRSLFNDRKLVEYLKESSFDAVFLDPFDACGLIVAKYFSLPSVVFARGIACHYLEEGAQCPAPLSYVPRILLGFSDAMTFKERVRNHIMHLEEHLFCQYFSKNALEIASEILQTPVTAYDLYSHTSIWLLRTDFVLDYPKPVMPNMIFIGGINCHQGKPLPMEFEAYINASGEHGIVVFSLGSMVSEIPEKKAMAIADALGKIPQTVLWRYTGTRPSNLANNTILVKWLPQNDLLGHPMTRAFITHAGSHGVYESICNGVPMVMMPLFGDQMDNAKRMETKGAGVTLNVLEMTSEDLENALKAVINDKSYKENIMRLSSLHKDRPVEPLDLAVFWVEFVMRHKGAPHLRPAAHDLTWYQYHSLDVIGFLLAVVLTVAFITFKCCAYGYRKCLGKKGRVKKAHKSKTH

For `Cc1cc(O)cc2sc(C3=NC(C(=O)O)CS3)nc12` (stereo not drawn) [Compound 3478], which “% utilization of substrate by UGT 1A1” value (UGT 1A1) is on record?
Its value is at most 15%.

And the “% utilization of substrate by UGT 1A10” value (UGT 1A10)?
Its value is at most 15%.

And the “utilization of substrate by UGT 1A4” value (UGT 1A4)?
Its value is “did not utilize either compound 3138 or 3478 to an appreciable extent”.

What about the “utilization of substrate by UGT 1A6” value (UGT 1A6) of the same molecule?
The value was “able to utilize compound 3478 to any appreciable extent”.

What about the “% utilization of substrate by UGT 1A8” value (UGT 1A8) of the same molecule?
The value was at most 15%.

And the “% utilization of substrate by UGT 1A9” value (UGT 1A9)?
The value was at most 15%.

What about the “utilization of substrate by UGT 2B4” value (UGT 2B4) of the same molecule?
Its value is “did not utilize either compound 3138 or 3478 to an appreciable extent”.

What about the “% utilization of substrate by UGT 2B7” value (UGT 2B7) of the same molecule?
Its value is at most 15%.

`COc1ccc2[nH]c([S+]([O-])Cc3ncc(C)c(OC)c3C)nc2c1` (stereo not drawn) [omeprazole] was tested. Which “change of signal versus vehicle (CYP1A2 induction)” value (CYP1A2 [1]) did it give?
The value was “significantly increased”.

What about the “induction of CYP1A2 activity” value (CYP1A2 [2]; compound 3019 alone (FIG. 34A)) of the same molecule?
The value was “induction of CYP1A2 activity”.

And the “induction of CYP1A2 activity” value (CYP1A2 [2]; compound 3019 in the presence of Luciferin-IPA (FIG. 34C))?
The value was “induction of CYP1A2 activity”.

For `O=c1cc(-c2ccccc2)oc2c1ccc1ccccc12` [α-naphthoflavone, reference compound], which “inhibition of compound 3019 activity in human liver microsomes” value [3] is on record?
The value was “sensitive to inhibition”.
